What was measured:
[1] = test system: A3AR; assay: A3AR level in peripheral blood mononuclear cells of RA patients by Western blot; format: in vivo, human
Protocol: Protein concentrations were determined using the Bio-Rad protein assay dye reagent. Equal amounts of the sample (50 μg) were separated by SDS-PAGE, using 12% polyacrylamide gels. […] Bands were recorded using BCIP/NBT color development kit (Promega, Madison, Wis., USA).

[2] = test system: A3AR; assay: A3AR protein expression level by Western blot in tissues of AIA rats; format: in vivo, rat
Protocol: (§1) Female Lewis rats, aged 8-12 weeks were obtained from Harlan Laboratories (Jerusalem, Israel). Rats were maintained on a standardized pelleted diet and supplied with tap water. Experiments were performed in accordance with the guidelines established by the Institutional Animal Care and Use Committee at Can-Fite BioPharma, Petah Tikva, Israel. The rats were injected subcutaneously (SC) at the tail base with 100 μl of suspension composed of incomplete Freund's adjuvant (IFA) with 10 mg/ml heat killed Mycobacterium tuberculosis, (Mt) H37Ra, (Difco, Detroit, USA). Each group contained 10 animals.
(§2) Treatment with IB-MECA (10 μg/kg) was initiated on day 14 after vaccination and was orally administered by gavage, twice daily. Another group was treated with Methotrexate (MTX) (1.5 mg/kg) intraperitoneally every 3 days, starting on day 14th after vaccination. The control group in each experiment received vehicle only (DMSO in a dilution corresponding to that of the drugs).
The hind paws were dissected above the ankle joint. The bony tissue was broken into pieces, snap frozen in liquid nitrogen and stored at −80° C. until use. To prepare a protein extract, RIPA buffer (containing 150 mM NaCl, 50 mM Tris, 1% NP40, 0.5% Deoxycholate and 0.1% SDS) was added to the paw tissue (4 ml/gr of tissue). The mixture was homogenized on ice with a polytron and centrifuged.
Synovial tissue was removed and synovial cells were separated by incubating the tissue in RPMI containing 1 mg/ml Collagenase IV and 0.1 mg/ml DNase with a vigorous shaking (200 rpm) at 37° C. for 30 min. The supernatant containing the synovial cells was collected and the undigested tissue was re-extracted. The supernatants from both extractions were combined and cells were washed with PBS. Protein extracts were prepared. […]
Western blot analysis (WB) of synovial, paw, spleen and lymph nodes were carried out according to the following protocol. […] Protein concentrations were determined using the Bio-Rad protein assay dye reagent. […] Bands were recorded using BCIP/NBT color development kit (Promega, Madison, Wis., USA).

[3] = test system: Adjuvant Induced Arthritis (AIA) rats; assay: Adjuvant induced arthritis (AIA) model in rats, clinical disease activity score; format: in vivo, rat; conditions: CF101 10 μg/kg orally twice daily from day 14 after immunization, MTX 1.5 mg/kg intraperitoneally every 3 days from day 14, vs vehicle
Protocol: as §1, §2
Clinical Disease Activity Score was assessed as follows: the animals were inspected every second day for clinical arthritis. […] The clinical score was calculated by adding the four individual legs' score. The inflammatory intensity was also determined in accordance with the increase in the rat hind paw's diameter, measured by caliper (Mitotoyo, Tokyo, Japan).

[4] = test system: RA patients; assay: Clinical study of CF101 in RA patients, ACR response; format: in vivo, human
Protocol: Blood was withdrawn from RA patients who were enrolled in a clinical study sponsored by Can-Fite BioPharma, in which the effect of CF101, a clinical grade IB-MECA, on arthritic patients was evaluated. The patients randomly received 0.1, 1.0 or 4.0 mg of CF101 twice daily. Blood was withdrawn at 2 time points: (a) after a washout period of 4-6 weeks from a previous treatment and before CF101 treatment was initiated—this was considered as baseline level; (b) after 3 months of treatment with CF101. Peripheral blood mononuclear cells were separated and protein was extracted as described above. In addition, C reactive protein (CRP) values, the number of tender and swollen joints, the physicians global assessment, the patient own assessment, the pain score and the disability score were recorded and the ACR score was calculated for each patient (ACR is a score that is calculated according to criteria established by the American College of Rheumatology, based on the aforementioned measures, to evaluate the effectiveness of drugs for treatment of RA; ACR 20, ACR 50 and ACR 70 respectively represent a 20%, 50% and 70% improvement in this score).

[5] = out of 17 RA patients, 3 months of CF101

CNC(=O)[C@H]1O[C@@H](n2cnc3c(NCc4cccc(I)c4)ncnc32)[C@H](O)[C@@H]1O [CF101, N^6-(3-iodobenzyl)-adenosine-5′-N-methyluronamide]
A3AR level in PBMNC of non-responders ([1]; after 3 months CF101 treatment vs baseline): essentially no change | A3AR level in PBMNC of ACR 50 and ACR 70 responders ([1]; after 3 months CF101 treatment vs baseline (initial high level)): reduced | A3AR expression level in peripheral hematopoietic tissues (spleen and lymph node) ([2]; AIA rats treated with IB-MECA, low in naïve animals, high in AIA): low expression | A3AR protein expression level in inflammatory tissues (paw & synovial) ([2]; AIA rats, upon IB-MECA treatment vs untreated AIA): down-regulated | disease severity evaluated by the arthritis clinical score [3]: significant decrease | responders with ACR 20 only response [4, 5]: 4 patients | responders with ACR 50 response [4, 5]: 5 patients | responders with ACR 70 response [4, 5]: 3 patients | non-responders (not even an ACR 20 response) ([4]; out of 17 RA patients, 3 months of CF101 0.1, 1.0 or 4.0 mg twice daily): 5 patients | other parameters, particularly number of swollen and tender joints, in patient no. 1517 ([4]; single RA patient with no ACR response (CRP change below 0%), 3 months of CF101): very significant improvement

CN(Cc1cnc2nc(N)nc(N)c2n1)c1ccc(C(=O)N[C@@H](CCC(=O)O)C(=O)O)cc1 [methotrexate, reference compound]
level of the A3AR in PBMNCs ([1]; 4 RA patients, prior to vs after onset of treatment with methotrexate): increase | A3AR expression profile in lymph nodes (LN) ([2]; AIA rats treated with MTX, compared with pattern seen with IB-MECA): a similar A3AR expression profile was observed | disease severity evaluated by the arthritis clinical score [3]: significant decrease
